Measured values: patent publication US20230017532A1 (Hoffmann-La Roche Inc., priority 2018, published 2023)
Structures can show the parent of a compound that is named as a salt.

The compounds below were run on Acinetobacter baumannii ATCC17978 (assay: Antimicrobial susceptibility testing: 90% growth inhibitory concentration (IC90) determination, Iso-Sensitest broth, OD 600 nm). Details: Acinetobacter baumannii, ATCC17978, 16 h, 90% growth inhibitory concentration, Acinetobacter baumannii ATCC17978, Iso-Sensitest broth, OD 600 nm over 16 h; read-out: ATCC 17978 IC90.
Assay type: cell-based
Procedure: Antimicrobial Susceptibility Testing:
90% Growth Inhibitory Concentration (IC90) Determination
The in vitro antimicrobial activity of the compounds was determined according to the following procedure:
The assay used a 10-points Iso-Sensitest broth medium to measure quantitatively the in vitro activity of the compounds against Acinetobacter baumannii ATCC17978 and Acinetobacter baumannii ATCC17961.
Stock compounds in DMSO were serially twofold diluted (e.g. range from 50 to 0.097 μM final concentration) in 384 wells microtiter plates and inoculated with 49 μl the bacterial suspension in Iso-Sensitest medium to have a final cell concentration of ˜5×10^(5) CFU/ml in a final volume/well of 50 ul/well. Microtiter plates were incubated at 35±2° C.
Bacterial cell growth was determined with the measurement of optical density at λ=600 nm each 20 minutes over a time course of 16 h. Growth inhibition was calculated during the logarithmic growth of the bacterial cells with determination of the concentration inhibiting 50% (IC50) and 90% (IC90) of the growth.
Table 1 provides the 90% growth inhibitory concentrations (IC90) in micromoles per liter of the compounds of present invention obtained against the strain Acinetobacter baumannii ATCC17978 and Acinetobacter baumannii ATCC17961.

Compound | IC90
COc1ccc(-c2cnc3c(Nc4ccc(C(=O)NCCOCCNCCO)c(C)c4)nccn23)cc1 [Example 40, N-(2-(2-((2-hydroxyethyl)amino)ethoxy)ethyl)-4-((3-(4-methoxyphenyl)imidazo[1,2-a]pyrazin-8-yl)amino)-2-methylbenzamide] | 0.21 µM
Cc1cc(Nc2nccn3c(-c4ccc(OC(F)F)cc4)cnc23)ccc1C(=O)NCCOCCOCCOCCOCCO [Example 155, 4-[[3-[4-(difluoro-methoxy)phenyl]imidazo [1,2-a]pyrazin-8-yl]amino]-N-[2-[2-[2-[2-(2-hydroxyethoxy)ethoxy]ethoxy]ethoxy]ethyl]-2-methylbenzamide] | 2.3 µM
COc1ccc(-c2cnc3c(Nc4ccc(C(=O)N(C)CCOCCN5CCNCC5)c(C)c4)nccn23)cc1F [Example 131, 4-[[3-(3-fluoro-4-methoxyphenyl)imidazo[1,2-a]pyrazin-8-yl]amino]-N,2-dimethyl-N-[2-(2-piperazin-1-ylethoxy)ethyl]benzamide] | 0.77 µM
COc1ccc(-c2cnc3c(Nc4ccc(C(=O)NCCNCCC[C@H](N)C(=O)O)c(C)c4)nccn23)c(F)c1F [Example 189, (2S)-2-amino-5-[2-[[4-[[3-(2,3-difluoro-4-methoxyphenyl)imidazo[1,2-a]pyrazin-8-yl]amino]-2-methyl-benzoyl]amino]ethylamino] pentanoic acid] | 2.4 µM
COc1ccc(-c2cnc3c(Nc4ccc(C(=O)NCCOCC(=O)N5CCNCC5)c(C)c4)nccn23)cc1F [Example 105, 4-[[3-(3-fluoro-4-methoxyphenyl)imidazo[1,2-a]pyrazin-8-yl]amino]-2-methyl-N-[2-(2-oxo-2-piperazin-1-ylethoxy)ethyl] benzamide] | 0.48 µM
COc1ccc(-c2cnc3c(Nc4ccc(C(=O)N(CCC#N)CCCCNCCC#N)c(C)c4)nccn23)cc1F [Example 165, N-(2-cyanoethyl)-N-[4-(2-cyanoethyl-amino)butyl]-4-[[3-(3-fluoro-4-methoxyphenyl)imidazo[1,2-a]pyrazin-8-yl]amino]-2-methylbenzamide] | 1.5 µM
COc1ccc(-c2cnc3c(Nc4ccc(C(=O)NCCOCCN5CCN(C)CC5)c(C)c4)nccn23)cc1 [Example 121, 4-[[3-(4-methoxyphenyl)imidazo[1,2-a]pyrazin-8-yl]amino]-2-methyl-N-[2-[2-(4-methylpiperazin-1-yl)ethoxy]ethyl] benzamide] | 0.62 µM
COc1ccc(-c2cnc3c(Nc4ccc(C(=O)N(C)CCOCCN5CCN(C=O)CC5)c(C)c4)nccn23)cc1F [Example 140, 4-[[3-(3-fluoro-4-methoxyphenyl)imidazo[1,2-a]pyrazin-8-yl]amino]-N-[2-[2-(4-formylpiperazin-1-yl)ethoxy]ethyl]-N,2-dimethyl-benzamide] | 1 µM
Cc1cc(Nc2nccn3c(-c4ccc(OC(F)F)cc4)cnc23)ccc1C(=O)N(C)CCOCCN1CCNCC1 [Example 126, 4-[[3-[4-(difluoromethoxy)phenyl]imidazo [1,2-a]pyrazin-8-yl]amino]-N,2-dimethyl-N-[2-(2-piperazin-1-ylethoxy)ethyl] benzamide] | 0.67 µM
COc1ccc(-c2cnc3c(Nc4ccc(C(=O)NCCNCCO)c(C)c4)nccn23)cc1 [Example 7, N-(2-((2-hydroxyethyl)amino)ethyl)-4-((3-(4-methoxyphenyl)imidazo[1,2-a]pyrazin-8-yl)amino)-2-methylbenzamide] | 1.9 µM
COc1ccc(-c2cnc3c(Nc4ccc(C(=O)NCCOCCO)c(C)c4)nccn23)cc1 [Example 116, N-[2-(2-hydroxyethoxy)ethyl]-4-[[3-(4-methoxyphenyl)imidazo[1,2-a]pyrazin-8-yl]amino]-2-methylbenzamide] | 0.59 µM
CNCCNC(=O)c1ccc(Nc2nccn3c(-c4ccc(OC)c(Cl)c4)cnc23)cc1 [Example 13, 4-[[3-(3-chloro-4-methoxyphenyl)imidazo[1,2-a]pyrazin-8-yl]amino]-N-[2-(methylamino)ethyl]benzamide;hydrochloride] | 4.2 µM
CCc1cc(Nc2nccn3c(-c4ccc(OC)c(F)c4F)cnc23)ccc1C(=O)NCCNCCCN [Example 188, N-[2-(3-amino-propylamino)ethyl]-4-[[3-(2,3-difluoro-4-methoxyphenyl)imidazo[1,2-a]pyrazin-8-y]amino]-2-ethylbenzamide; formic acid] | 1.2 µM
COc1ccc(-c2cnc3c(Nc4ccc(C(=O)NCCOCCN5CCC(O)CC5)c(C)c4)nccn23)cc1 [Example 38, N-(2-(2-(4-hydroxypiperidin-1-yl)ethoxy)ethyl)-4-((3-(4-methoxyphenyl)imidazo[1,2-a]pyrazin-8-yl)amino)-2-methylbenzamide] | 0.15 µM

Further lines, results first:

IC90 | Compound
1.1 µM | Cc1cc(Nc2nccn3c(-c4ccc(OC(F)F)cc4)cnc23)ccc1C(=O)NCCOCCOCCOCCN [Example 17, N-(2-(2-(2-(2-aminoethoxy)ethoxy)ethoxy)ethyl)-4-((3-(4-(difluoromethoxy)phenyl)imidazo[1,2-a]pyrazin-8-yl)amino)-2-methylbenzamide]
0.59 µM | CCc1cc(Nc2nccn3c(-c4ccc(OC)c(F)c4F)cnc23)ccc1C(=O)NCCCNCCN [Example 185, N-[3-(2-aminoethyl-amino)propyl]-4-[[3-(2,3-difluoro-4-methoxyphenyl)imidazo[1,2-a]pyrazin-8-yl]amino]-2-ethylbenzamide; 2,2,2-trifluoro-acetic acid]
0.37 µM | Cc1cc(Nc2nccn3c(-c4ccc(OC(F)F)c(F)c4)cnc23)ccc1C(=O)NCCOCCN [Example 97, N-[2-(2-aminoethoxy)ethyl]-4-[[3-[4-(difluoro-methoxy)-3-fluorophenyl]imidazo[1,2-a]pyrazin-8-yl]amino]-2-methylbenzamide; hydrochloride]
0.24 µM | COc1ccc(-c2cnc3c(Nc4ccc(C(=O)NCCOCCN)c(C)c4)nccn23)cc1 [Example 14, N-(2-(2-aminoethoxy)ethyl)-4-((3-(4-methoxyphenyl)imidazo[1,2-a]pyrazin-8-yl)amino)-2-methylbenzamide hydrochloride]
0.31 µM | Cc1cc(Nc2nccn3c(-c4ccc(OC(F)F)cc4)cnc23)ccc1C(=O)NCCOCCN(C)C [Example 96, 4-[[3-[4-(difluoromethoxy)phenyl]imidazo [1,2-a]pyrazin-8-yl]amino]-N-[2-[2-(dimethylamino)ethoxy]ethyl]-2-methyl-benzamide]
1.3 µM | Cc1cc(Nc2nccn3c(-c4ccc(OC(F)F)cc4)cnc23)ccc1C(=O)NCCOCCOCCO [Example 149, 4-[[3-[4-(difluoro-methoxy)phenyl]imidazo [1,2-a]pyrazin-8-yl]amino]-N-[2-[2-(2-hydroxyethoxy)ethoxy]ethyl]-2-methylbenzamide]
0.59 µM | COc1ccc(-c2cnc3c(Nc4ccc(C(=O)NCCOCC(=O)N5CCN(C)CC5)c(C)c4)nccn23)cc1 [Example 115]
2 µM | Cc1cc(Nc2nccn3c(-c4ccc(OC(F)F)cc4)cnc23)ccc1C(=O)NCCOCCNC(=O)CN1CCNCC1 [Example 153, 4-[[3-[4-(difluoro-methoxy)phenyl]imidazo [1,2-a]pyrazin-8-yl]amino]-2-methyl-N-[2-[2-[(2-piperazin-1-ylacetyl)amino)ethoxy]ethyl] benzamide; hydrochloride]
3.8 µM | COc1ccc(-c2cnc3c(Nc4ccc(C(=O)NCCOCCN)cc4)nccn23)cc1 [Example 15, N-(2-(2-aminoethoxy)ethyl)-4-((3-(4-methoxyphenyl)imidazo[1,2-a]pyrazin-8-yl)amino)benzamide hydrochloride]

Same assay, conditions: Acinetobacter baumannii, ATCC17978, 16 h, read-out: ATCC 17978 IC90

Compound | IC90
Cc1cc(Nc2nccn3c(-c4ccc(F)c(F)c4)cnc23)ccc1C(=O)NCCOCCN [Example 33, N-(2-(2-aminoethoxy)ethyl)-4-((3-(3,4-difluorophenyl)imidazo[1,2-a]pyrazin-8-yl)amino)-2-methylbenzamide hydrochloride] | 0.52 µM
COc1ccc(-c2cnc3c(Nc4ccc(C(=O)NCCOCCN)c(C)c4)nccn23)cc1F [Example 36, N-(2-(2-aminoethoxy)ethyl)-4-((3-(3-fluoro-4-methoxyphenyl)imidazo[1,2-a]pyrazin-8-yl)amino)-2-methylbenzamide hydrochloride] | 0.16 µM
CC#CCOc1ccc(-c2cnc3c(Nc4ccc(C(=O)NCCOCCN)c(C)c4)nccn23)cc1 [Example 67, N-[2-(2-aminoethoxy)ethyl]-4-[[3-(4-but-2-ynoxyphenyl)imidazo[1,2-a]pyrazin-8-yl]amino]-2-methyl-benzamide; 2,2,2-trifluoroacetic acid] | 0.23 µM
Cc1cc(Nc2nccn3c(-c4ccc(Cl)c(F)c4)cnc23)ccc1C(=O)NCCOCCN [Example 32, N-(2-(2-aminoethoxy)ethyl)-4-((3-(4-chloro-3-fluorophenyl)imidazo[1,2-a]pyrazin-8-yl)amino)-2-methylbenzamide hydrochloride] | 0.3 µM
COc1ccc(-c2cnc3c(Nc4ccc(C(=O)NCCOCCN)c(Cl)c4)nccn23)cc1F [Example 4, N-(2-(2-aminoethoxy)ethyl)-2-chloro-4-((3-(3-fluoro-4-methoxyphenyl)imidazo[1,2-a]pyrazin-8-yl)amino)benzamide hydrochloride] | 0.098 µM
